Measurements published in patent US20230286948A1 (HUYABIO International, LLC, priority 2022, published 2023).

Test system: MV-411 cells
Assay: Anti-proliferative activity against MV-411 leukemia cells (CellTiterGlo viability, 72 h)
Format: cell-based
Conditions: MV-411 human acute monocytic leukemia cells, a second value in parentheses is a further determination
Description: Procedure: MV-411 cells were seeded into 384 well plates at 2000 cells/well density in 50 μL total volume, according to plate map and were allowed to naturally sediment by waiting about 30 min on a Clean Bench. Next, plated cells were centrifuged for 1 min at 1000 rpm and the excess cells were transferred into the flasks for further culture. Cells in the assay plates were incubated (at least 4 hrs.) at 37° C., 5% CO2 followed by adding the compounds as the plate map indicated. The tests were performed in duplicates with treatment of compounds at 10 pts 3-fold titration in 384 well plates. Taxol was used as positive control while DMSO as negative control. To rule out edge effect, the wells on the edge were not seeded and therefore one 384 well plate holds 13 compounds. Cells viability was measured 72h after incubation with compounds using CellTiterGlo (promega) viability assay according to manufacturer's instruction to check the ATP production in each well.
Experiments on anti-proliferative activity against leukemia cells were conducted with some of the compounds of the invention.

Row | Compound | GI50 (Homo sapiens, MV4-11, 72 h) | GI50
1 | C[C@@H]1CN(c2ccc(-n3cc(C(=O)NCCCN4CCOCC4)nn3)cc2NC(=O)c2cnc(Cl)cc2C(F)(F)F)C[C@H](C)N1C [Compound 1] | 1.38 µM | 
2 | C[C@@H]1CN(c2ccc(-n3cc(C(=O)NCCCN4CCOCC4)nn3)cc2NC(=O)c2c[nH]c(=O)cc2C(F)(F)F)C[C@H](C)N1C [Compound 2] | > 200 µM | 
3 | CN1CCN(c2ccc(-n3cc(C(=O)NCCCN4CCOCC4)nn3)cc2NC(=O)c2c[nH]c(=O)cc2C(F)(F)F)CC1 [Compound 4] | > 200 µM | 
4 | C[C@@H]1CN(c2cc(F)c(-n3cc(C(=O)NCCCN4CCOCC4)nn3)cc2NC(=O)c2cnc(Cl)cc2C(F)(F)F)C[C@H](C)N1C [Compound 5] | 7.26 µM | 
5 | C[C@@H]1CN(c2cc(F)c(-n3cc(C(=O)NCCCN4CCOCC4)nn3)cc2NC(=O)c2c[nH]c(=O)cc2C(F)(F)F)C[C@H](C)N1C [Compound 6] | > 200 µM | 
6 | CN1CCN(c2cc(F)c(-n3cc(C(=O)NCCCN4CCOCC4)nn3)cc2NC(=O)c2c[nH]c(=O)cc2C(F)(F)F)CC1 [Compound 8] | > 200 µM | 
7 | C[C@H]1CN(c2ccc(-n3cc(C(=O)NCCCN4CCOCC4)nn3)cc2NC(=O)c2c[nH]c(=O)cc2C(F)(F)F)CCN1C [Compound 10] | > 200 µM | 
8 | CN1CCN(c2ccc(-n3cc(C(=O)NCCCN4CCOCC4)nn3)cc2NC(=O)c2cnc(F)cc2C(F)(F)F)CC1 [Compound 11] | 2.14 µM | 2.01 µM
9 | Cc1cc(C(F)(F)F)c(C(=O)Nc2cc(-n3cc(C(=O)NCCCN4CCOCC4)nn3)ccc2N2CCN(C)CC2)cn1 [Compound 12] | 60.1 µM | 88.8 µM
10 | CN1CCN(c2ccc(-n3cc(C(=O)NCCCN4CCOCC4)nn3)cc2NC(=O)c2cnc(C#N)cc2C(F)(F)F)CC1 [Compound 13] | 21.8 µM | 23.7 µM
11 | CSc1cc(C(F)(F)F)c(C(=O)Nc2cc(-n3cc(C(=O)NCCCN4CCOCC4)nn3)ccc2N2CCN(C)CC2)cn1 [Compound 14] | 25.3 µM | 21.4 µM
12 | CN1CCN(c2ccc(-n3cc(C(=O)NCCCN4CCOCC4)nn3)cc2NC(=O)c2cnc(S(C)(=O)=O)cc2C(F)(F)F)CC1 [Compound 15] | > 237 µM | 
13 | COc1cc(C(F)(F)F)c(C(=O)Nc2cc(-n3cc(C(=O)NCCCN4CCOCC4)nn3)ccc2N2CCN(C)CC2)cn1 [Compound 16] | 51.9 µM | 
14 | CN1CCN(c2ccc(-n3cc(C(=O)NCCCN4CCOCC4)nn3)cc2NC(=O)c2cnc(N)cc2C(F)(F)F)CC1 [Compound 18] | 42.7 µM | 
15 | CN1CCN(c2ccc(-n3cc(C(=O)NCCCN4CCOCC4)nn3)cc2NC(=O)c2cnc(Cl)cc2Cl)CC1 [Compound 19] | 0.91 µM | 0.94 µM
16 | CN1CCN(c2ccc(-n3cc(C(=O)NCCCN4CCOCC4)nn3)cc2NC(=O)c2cnc(C(F)(F)F)cc2Cl)CC1 [Compound 20] | 2.86 µM | 3.19 µM
17 | Cc1c(Cl)ncc(C(=O)Nc2cc(-n3cc(C(=O)NCCCN4CCOCC4)nn3)ccc2N2CCN(C)CC2)c1Cl [Compound 21] | 2.5 µM | 2.33 µM
18 | CN1CCN(c2ccc(-n3cc(C(=O)NCCCN4CCOCC4)nn3)cc2NC(=O)c2cnc(C(F)F)cc2Cl)CC1 [Compound 22] | 39.7 µM | 
19 | CN1CCN(c2ccc(-n3cc(C(=O)NCCCN4CCOCC4)nn3)cc2NC(=O)c2cnc(C#N)cc2N(C)C)CC1 [Compound 23] | 196 µM | 
20 | Cc1cc(N)ncc1C(=O)Nc1cc(-n2cc(C(=O)NCCCN3CCOCC3)nn2)ccc1N1CCN(C)CC1 [Compound 24] | > 200 µM | 
21 | Cc1cc(F)ncc1C(=O)Nc1cc(-n2cc(C(=O)NCCCN3CCOCC3)nn2)ccc1N1CCN(C)CC1 [Compound 25] | 146 µM | 
22 | Cc1ncc(C(=O)Nc2cc(-n3cc(C(=O)NCCCN4CCOCC4)nn3)ccc2N2CCN(C)CC2)c(C(F)(F)F)n1 [Compound 26] | 75.2 µM | 61.7 µM
23 | CSc1ncc(C(=O)Nc2cc(-n3cc(C(=O)NCCCN4CCOCC4)nn3)ccc2N2CCN(C)CC2)c(C(F)(F)F)n1 [Compound 27] | 18.5 µM | 
24 | CN1CCN(c2ccc(-n3cc(C(=O)NCCCN4CCOCC4)nn3)cc2NC(=O)c2cnc([S+](C)[O-])nc2C(F)(F)F)CC1 (stereo not shown) [Compound 28] | > 200 µM | 
25 | CCOc1ncc(C(=O)Nc2cc(-n3cc(C(=O)NCCCN4CCOCC4)nn3)ccc2N2CCN(C)CC2)c(C(F)(F)F)n1 [Compound 29] | 18.4 µM | 
26 | COc1nc(SC)ncc1C(=O)Nc1cc(-n2cc(C(=O)NCCCN3CCOCC3)nn2)ccc1N1CCN(C)CC1 [Compound 30] | 12.2 µM | 

Row | Compound | GI50 (Homo sapiens, MV4-11, 72 h) | GI50
27 | Cc1nc(C(F)(F)F)ncc1C(=O)Nc1cc(-n2cc(C(=O)NCCCN3CCOCC3)nn2)ccc1N1CCN(C)CC1 [Compound 31] | 106 µM | 
28 | CN1CCN(c2ccc(-n3cc(C(=O)NCCCN4CCOCC4)nn3)cc2NC(=O)c2nnc(Cl)cc2Cl)CC1 [Compound 32] | 1.24 µM | 
29 | CN1CCN(c2ccc(-n3cc(C(=O)NCCCN4CCOCC4)nn3)cc2NC(=O)c2nnc(Cl)cc2N)CC1 [Compound 33] | 35.3 µM | 
30 | CN1CCN(c2ccc(-n3cc(C(=O)NCCCN4CCOCC4)nn3)cc2NC(=O)c2ncc(Cl)nc2Cl)CC1 [Compound 34] | 0.37 µM | 
31 | COc1cnc(C(=O)Nc2cc(-n3cc(C(=O)NCCCN4CCOCC4)nn3)ccc2N2CCN(C)CC2)c(Cl)n1 [Compound 35] | 2.42 µM | 
32 | COc1cnc(C(=O)Nc2cc(-n3cc(C(=O)NCCCN4CCOCC4)nn3)ccc2N2CCN(C)CC2)c(OC)n1 [Compound 36] | 28.2 µM | 
33 | CN1CCN(c2ccc(-n3cc(C(=O)NCCCN4CCOCC4)nn3)cc2NC(=O)c2ccc(Cl)nc2C(F)(F)F)CC1 [Compound 37] | 44.3 µM | 46.2 µM
34 | COc1ccc(C(=O)Nc2cc(-n3cc(C(=O)NCCCN4CCOCC4)nn3)ccc2N2CCN(C)CC2)c(C(F)(F)F)n1 [Compound 38] | 67.9 µM | 
35 | CN1CCN(c2ccc(-n3cc(C(=O)NCCCN4CCOCC4)nn3)cc2NC(=O)c2ccc(C#N)nc2C(F)(F)F)CC1 [Compound 39] | 20.2 µM | 
36 | CN1CCN(c2ccc(-n3cc(C(=O)NCCCN4CCOCC4)nn3)cc2NC(=O)c2ccc(C(N)=O)nc2C(F)(F)F)CC1 [Compound 40] | > 200 µM | 
37 | CN1CCN(c2ccc(-n3cc(C(=O)NCCCN4CCOCC4)nn3)cc2NC(=O)c2ccc(N)nc2C(F)(F)F)CC1 [Compound 41] | 108 µM | 
38 | COc1ccc(CNc2ccc(C(=O)Nc3cc(-n4cc(C(=O)NCCCN5CCOCC5)nn4)ccc3N3CCN(C)CC3)c(C(F)(F)F)n2)cc1 [Compound 42] | 3.17 µM | 
39 | CSc1ccc(C(=O)Nc2cc(-n3cc(C(=O)NCCCN4CCOCC4)nn3)ccc2N2CCN(C)CC2)c(C(F)(F)F)n1 [Compound 43] | 19.9 µM | 
40 | CN1CCN(c2ccc(-n3cc(C(=O)NCCCN4CCOCC4)nn3)cc2NC(=O)c2ccc(S(C)(=O)=O)nc2C(F)(F)F)CC1 [Compound 44] | 49.9 µM | 
41 | CN1CCN(c2ccc(-n3cc(C(=O)NCCCN4CCOCC4)nn3)cc2NC(=O)c2ncc(N)cn2)CC1 [Compound 45] | 11.2 µM | 
42 | CN1CCN(c2ccc(-n3cc(C(=O)NCCCN4CCOCC4)nn3)cc2NC(=O)c2ccc(Cl)cc2C(F)(F)F)CC1 [Compound 46] | 22.4 µM | 
43 | Cc1cc(Cl)c(C(=O)Nc2cc(-n3cc(C(=O)NCCCN4CCOCC4)nn3)ccc2N2CCN(C)CC2)cc1N [Compound 49] | 27.7 µM | 
44 | CCN(CC)C(=O)c1cn(-c2cc(NC(=O)c3cnc(Cl)cc3C(F)(F)F)c(N3C[C@@H](C)N(C)[C@@H](C)C3)cc2F)nn1 [Compound 50] | 0.49 µM | 
45 | C[C@@H]1CN(c2cc(F)c(-n3cc(C(=O)N4CCN(C)CC4)nn3)cc2NC(=O)c2cnc(Cl)cc2C(F)(F)F)C[C@H](C)N1C [Compound 51] | 1.14 µM | 
46 | C[C@@H]1CN(c2cc(F)c(-n3cc(C(=O)NC4CCN(C)CC4)nn3)cc2NC(=O)c2cnc(Cl)cc2C(F)(F)F)C[C@H](C)N1C [Compound 52] | 1.22 µM | 
47 | CCN(CC)C(=O)c1cn(-c2cc(NC(=O)c3cnc(F)cc3C(F)(F)F)c(N3C[C@@H](C)N(C)[C@@H](C)C3)cc2F)nn1 [Compound 53] | 0.9 µM | 
48 | COc1cc(C(F)(F)F)c(C(=O)Nc2cc(-n3cc(C(=O)NC4CCN(C)CC4)nn3)c(F)cc2N2C[C@@H](C)N(C)[C@@H](C)C2)cn1 [Compound 54] | 14.3 µM | 
49 | COc1cc(C(F)(F)F)c(C(=O)Nc2cc(-n3cc(C(=O)NCCCN4CCOCC4)nn3)c(F)cc2N2C[C@@H](C)N(C)[C@@H](C)C2)cn1 [Compound 55] | 27.8 µM | 
50 | CCN(CC)C(=O)c1cn(-c2cc(NC(=O)c3cnc(Cl)cc3Cl)c(N3C[C@@H](C)N(C)[C@@H](C)C3)cc2F)nn1 [Compound 56] | 1.17 µM | 
51 | C[C@@H]1CN(c2cc(F)c(-n3cc(C(=O)N4CCN(C)CC4)nn3)cc2NC(=O)c2cnc(Cl)cc2Cl)C[C@H](C)N1C [Compound 57] | 0.74 µM | 
52 | C[C@@H]1CN(c2cc(F)c(-n3cc(C(=O)NC4CCN(C)CC4)nn3)cc2NC(=O)c2cnc(C(F)(F)F)cc2Cl)C[C@H](C)N1C [Compound 58] | 0.68 µM | 
